The text below walks through data of patent US11591301B2, “Indoleamine-2,3-dioxygenase inhibitor, preparation method therefor and use thereof” (HINOVA PHARMACEUTICALS INC., priority 2018, dated 2023).

By AUC is commonly meant concentration integrated over time. The Tmax is the time from dosing to the highest level. As a reminder, the IC50 is the concentration at which inhibition is half-maximal.

Data set [1] is described as follows: Metabolic stability in mouse liver microsomes. Type of data set: in vitro ADME. Particulars: mouse liver microsomes 0.5 mg/mL; read-out: Mouse liver microsomes Half-life t1/2. The method, then: (§1) Step 1: the mother liquor is prepared according to the composition ratio in Table 3 below:
(§2) Step 2: two experiments were respectively carried out as follows:
(§3) A) Adding NADPH:10 μL of liver microsomes at a concentration of 20 mg/mL and 40 μL of NADPH at a concentration of 10 mM were added to the incubation test. The final concentrations of liver microsomes and NADPH were 0.5 mg/mL and 1 mM, respectively.
(§4) B) Without addition of NADPH:10 μL of liver microsomes at a concentration of 20 mg/mL and 40 μL of high purity water were added to the incubation test. The final concentration of liver microsome was 0.5 mg/mL.
(§5) Step 3: 4 μL of 200 µM positive control or test compound was added and then the reaction was carried out. The positive control in this experiment was Verapamil. The final concentration of test compound was […].
(§6) Step 4: 50 μL was respectively taken out from the reaction solutions at the time points of 0, 15, 30, 45 and 60 min. 4× volumes of acetonitrile and IS (alprazolam at the concentration of 100 nM, labetalol at the concentration of 200 nM, caffeine at the concentration of 200 nM and ketoprofen at the concentration of 2 μM) were added to the reaction solution. The sample was centrifuged at 3,220 gram gravity for 40 minutes. 100 μL high-purity water was added to 100 μL supernatant and then analyzed by LC-MS/MS.
(§7) Step 5: Data analysis: the peak area was determined from the extracted ion chromatogram. The slope value k was determined by linear regression of the natural logarithm from the curve produced by the remaining percentage of the parent drug vs the incubation time.
(§8) In vitro half-life (in vitro t1/2) is determined by the slope value: in vitro t1/2=−(0.693/k)
Background: Liver microsomes are a subcellular fraction often used to study metabolism.

A short description of data set [2]: Metabolic stability in rat liver microsomes. The conditions noted are these: rat liver microsomes 0.5 mg/mL; read-out: Rat liver microsomes Half-life t1/2. Type of data set: in vitro ADME. The method, then:
as §1, §2, §3, §4, §5, §6, §7, §8

A short description of data set [3]: Metabolic stability in human liver microsomes. It counts as in vitro ADME. The conditions noted are these: human liver microsomes 0.5 mg/mL; read-out: Human liver microsomes Half-life t1/2. The method, then: as §1, §2, §3, §4, §5, §6, §7, §8
Data set [4] in a line: Pharmacokinetic experiment in mice (PO). It counts as in vivo. Particulars: ICR, mouse, plasma, 10 mg/kg, 10 mpk; for Cmax: read-out: Blood concentration Cmax; for AUC: read-out: Curve area AUC; for half-life: read-out: Half life t1/2 (converted); for Tmax: read-out: Peak hour tmax. The method, then: Experimental animals: ICR mice (Chengdu Dashuo Experimental Animal Co., Ltd.)
5 mg of compound (compound 4 of the present invention, using similar compound INCB-24360 in clinical Phase III as reference compound) was accurately weighed, and the corresponding vehicle was added to a final volume of 10 ml, then mixed by ultrasonic vortexing. The solution at the concentration of 0.5 mg/ml was prepared. The final solution (0.2 ml) prepared was stored at −20° C. for concentration determination. 9 healthy adult ICR mice (20-30 g) were fasted overnight (free access to water), and received the administration volume of 0.2 ml/10 g by gavage; just prior to administration and 0.5, 1, 2, 4, 6, 8, 12, and 24 h after administration, 0.1 ml blood was collected from the retroorbital venous plexus, centrifuged at 4° C. for 5 min to separate the plasma, and stored at −20° C. for testing. Then the concentration of test compound in plasma was measured by LC/MS/MS method.

The target in data set [5] is IDO1 protease activity in Hela cells (Homo sapiens (Human), UniProt P14902). Kind of data set: Inhibition of IDO protease in HeLa cells (IDO/kynurenine experiment, IFN-γ induced). The conditions noted are these: 10 ng/mL IFN-γ, 48 h, OD480 nm, read-out: IC50, inhibitory activity against IDO1 protease activity in Hela cells. Type of data set: cell-based. The method, then: 2) Experimental Method for Compound Assay 2.1 Seeding HeLa Cells into 96 Well Plate
Sequence of IDO1 protease activity in Hela cells (P14902 whole entry): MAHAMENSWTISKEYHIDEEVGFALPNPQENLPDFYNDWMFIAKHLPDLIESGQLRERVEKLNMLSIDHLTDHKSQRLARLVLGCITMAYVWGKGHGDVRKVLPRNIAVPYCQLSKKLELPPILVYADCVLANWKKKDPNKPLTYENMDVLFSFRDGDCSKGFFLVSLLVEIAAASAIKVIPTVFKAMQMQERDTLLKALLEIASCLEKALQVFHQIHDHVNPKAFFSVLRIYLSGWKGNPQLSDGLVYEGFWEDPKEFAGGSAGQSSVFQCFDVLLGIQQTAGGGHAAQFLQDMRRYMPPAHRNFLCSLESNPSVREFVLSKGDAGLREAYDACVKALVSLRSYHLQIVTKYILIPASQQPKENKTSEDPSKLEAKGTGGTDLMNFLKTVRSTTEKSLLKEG
The medium was taken out from the flask and the cells were washed with PBS. TrypLE solution was added to the flask to make the cells separate. The cells were further washed once with fresh medium containing 10% FBS, and then re-suspended in the medium until the final concentration was 2.3×10^6/mL. Only cells with activity greater than 90% can be used for detection. HeLa cells were planted into 100 μL suitable growth median 96 well plate at 3000 cells/well. The cells were incubated at 37° C. under 5% CO2 overnight.
The compound was diluted to the concentration of 10 mM with DMSO, that was then continuously diluted 3 times to get 9 concentrations. 5 μL compound was added into 45 μL media as the median dilution (10 times dilution, containing 10% DMSO). 96 μL fresh growth media were added to each well to reach the total volume of 196 μL. 2 μL compound solution was taken from the mid-diluted solution and added to the cells in the wells of the assay plate, and then incubated in a 5% CO2 incubator at 37° C. for 30 minutes. 2 μL human IFN-γ solution was added to reach a total volume of 200 μL, with the final concentration of 10 ng/mL, and the final concentration is 0.1%. The cells were incubated in 5% CO2 incubator at 37° C. for 48 h.
After incubating for another 48 hours in a 5% CO2 incubator at 37° C., 140 μL supernatant was added to each well and transferred to a new 96-well plate. 10 μL of 6.1N CCl3COOH was further added to each well, and incubated at 50° C. for 30 min after sealing. The plate was then centrifuged at 2500 rpm for 10 minutes. 100 μL supernatant in each well was transferred to another 96-well assay plate and mixed with 100 μL of 6% (w/v) p-dimethylaminobenzaldehyde. EnSpire was used to read the plate at OD480 nm.
The average data of HC (high control: 10 ng/mL IFN-γ) and LC (low control: no IFN-γ) were calculated for each screening plate. Percent inhibition of compound well (% inh)=100*(aveHC−cpd well)/(aveHC−ave LC). Finally, GraphPad Prism 6 software was used to calculate the IC50 values of compounds and draw the effect-concentration curve.

In a further data set the target is human IDO1 protease (Homo sapiens (Human), UniProt P14902). The experiment in a line: Inhibitory activity against human IDO1 protease (absorbance test method). Type of data set: biochemical. Particulars: IDO1 (His-tag) enzyme, absorbance at 320 nm. The method, then:
IDO1 (His-tag) enzyme(BPS Bioscience), L-tryptophan (Sigma), methylene blue (Sigma), Catalase originated from the liver of cattle (Sigma), L-ascorbic acid (Sigma), glycerol (Sigma), potassium dihydrogen phosphate solution (Sigma), Tween 20 (Sigma), automatic sampling platformLiquid handler (Bravo & Echo), microplate ReaderSpectraMax M5e (Molecular Devices).
2) Test Method of Compounds: The Compounds are Determined by Absorbance Test Method:
The tested compounds are dissolved in DMSO to prepare a high concentration of storage solution. The stock solution of reference compound was diluted with DMSO to prepare a 100× solution. In the first column of the working plate, 8 μL above tested compounds and 8 μL 100× reference compound were respectively added as the highest concentration, and then the highest concentrations were subjected to three times dilution to obtain 11 concentrations and prepare 100× solution. 0.5 μL solution was transferred from the above plate to the detection plate. To each well was added 0.5 μL 100× compound solution. For HPE and ZPE control wells, 0.5 μL 100% DMSO was added. 25 μL 2×IDO1 (His-tag) enzyme solution (containing L-ascorbic acid, methylene blue, and catalase) was added to each well. 25 μL reaction solution without IDO1 (His-tag) enzyme was added into HPE control well. The test plate was centrifugated at 1000 rpm for 1 minute to mix well. Then, the test plate was incubated at room temperature for 30 minutes. 25 μL above 2× substrate (L-tryptophan) solution was added to each well. The test plate was centrifugated at 1000 rpm for 1 minute to mix well. The detection plate was placed on ELISA (SpectraMax M5e), the temperature was set at 25° C., and the absorbance (OD value) was measured at 320 nm every 10 minutes till 60 minutes.
Calculating the increase ratio of absorbance: the slope of the absorbance increase curve from 10 min to 60 min is derived from SpectralMax M5e. The inhibition coefficient of compound was calculated: the inhibition ratio of compound=(the absorbance increase ratio of ZPE control well−the absorbance increase ratio of compound well)/(the absorbance increase ratio of ZPE control well−the absorbance increase ratio of HPE control well)×100. Results was analyzed by Prism 5.0.

Sequence of human IDO1 protease (P14902 whole entry): as above

Consider `CNS(=O)(=O)CCCNc1nonc1/C(=N/O)Nc1ccc(F)c(Br)c1` [Example 11, N-(3-bromo-4-fluorophenyl)-N′-hydroxyl-4-((3-(N-methylsulfamoyl)propyl)amino)-1,2,5-oxadiazol-3-formamidine], for which the half-life at 2 µM in data set [1] stood at 0.167 h. In data set [2], the half-life at 2 µM turned out to be 0.4 h. In addition, the half-life at 2 µM in data set [3] worked out at 1.55 h. In addition, in data set [4], the Cmax worked out at 687 ng/mL, the AUC was found to be 845 ng·h/mL, the half-life was 1.15 h and the time of peak concentration (Tmax) is 0.5 h. For the same compound, the half-maximal inhibitory concentration (IC50) in data set [5] is 8 nM.
As for `NS(=O)(=O)NCCNc1nonc1C(=NO)Nc1ccc(F)c(Br)c1` [INCB024360, reference compound], the half-life at 2 µM in data set [1] worked out at 1.3 h; in data set [2] it was 2.43 h; in data set [3], 2.62 h.
As for `NS(=O)(=O)CCNc1nonc1C(=NO)Nc1ccc(F)c(Br)c1` [Example 1, N-(3-bromo-4-fluorophenyl)-N′-hydroxyl-4-((2-sulfamoylethyl)amino)-1,2,5-oxadiazol-3-formamidine], the half-life at 2 µM in data set [1] is 0.8 h. At human IDO1 protease, this compound had an IC50 of 19 nM. Further, in data set [2], the half-life at 2 µM stood at 1.73 h. Further, in data set [3], the half-life at 2 µM came out at 7.45 h. For the same compound, in data set [4], the Cmax was 555 ng/mL, the AUC is 1320 ng·h/mL, the half-life is 1.28 h and the Tmax was 0.67 h.
With `CCNS(=O)(=O)CCCNc1nonc1C(=NO)Nc1ccc(F)c(Br)c1` [Example 12, N-(3-bromo-4-fluorophenyl)-N′-hydroxyl-4-((3-(N-ethylsulfamoyl)propyl)amino)-1,2,5-oxadiazol-3-formamidine], the half-life at 2 µM in data set [1] came to 0.383 h. Besides, the IC50 at human IDO1 protease stood at 47 nM. Moreover, in data set [2], the half-life at 2 µM was 0.317 h. For the same compound, in data set [3], the half-life at 2 µM amounted to 2.73 h. In data set [4], the Cmax is 704 ng/mL, the AUC is 1080 ng·h/mL, the half-life was 2.87 h and the time of peak concentration (Tmax) worked out at 0.5 h. In addition, the IC50 in data set [5] was found to be 12 nM.
For the compound `NS(=O)(=O)CCCCNc1nonc1C(=NO)Nc1ccc(F)c(Br)c1` [Example 22, N-(3-bromo-4-fluorophenyl)-N′-hydroxyl-4-((4-sulfamoylbutyl)amino)-1,2,5-oxadiazol-3-formamidine], the half-life at 2 µM in data set [1] was 1.45 h; in data set [2], 1.22 h; in data set [3], 29.4 h. The IC50 in data set [5] was 12 nM.
For the compound `[2H]C([2H])([2H])NS(=O)(=O)CCCNc1nonc1/C(=N/O)Nc1ccc(F)c(Br)c1` [Example 27, N-(3-bromo-4-fluorophenyl)-N′-hydroxyl-4-((3-(N-(methyl-d3)sulfonyl)propyl)amino)-1,2,5-oxadiazol-3-oximecarboxamide], the half-life at 2 µM in data set [1] came out at 0.35 h. For the same compound, the half-life at 2 µM in data set [2] came out at 0.633 h. Further, the half-life at 2 µM in data set [3] came out at 5.72 h. Also, in data set [4], the Cmax is 469 ng/mL, the AUC was 1050 ng·h/mL, the half-life is 2.5 h and the Tmax is 0.5 h. Further, the IC50 in data set [5] is 10 nM.
